From patent US20070036775A1 (priority 2001, published 2007) come the findings set out here.

Peptide text beside a SMILES is read from it. * marks the point of attachment. Cbz = O=C(OCc1ccccc1)*; CH2F = FC*

For one assay, the system named is Hela cells. Nature of the assay: STS-induced apoptosis in Hela cells, Hoechst staining of apoptotic nuclei. In kind it is cell-based, human. The settings on record: for percentages of apoptotic cells: Hela cells, one day; for effect on STS-induced apoptosis: HeLa cells transfected with Ku70 construct, 24 hours.
Assay [1] relates to HEK293T cells. Description: UVC-irradiation-induced apoptosis in HEK293T cells, Hoechst staining. It is filed as cell-based. Particulars: for effect on UVC-irradiation-induced cell death: HEK293T cells transfected with Ku70 construct, 200 J/m^2 UVC, 24 hours.
Method: HEK293T cells (10^6 cells) were transfected with 0.5 μg PEGFP and 1.0 μg pCMV-2B (Vector), pCMV-2B-Ku70 wt (Ku70 wt), or pCMV-2B-Ku70536-609 (Ku70536-609). One day following transfection, cells were exposed to 200 J/m^2 of UVC-irradiation. After 24 hours, apoptotic cells were counted as described in FIG. 1.
One day following transfection, except in the control group (Control), cells were exposed to UVC-irradiation in the absence (UV or UV+Ku70) or the presence of 50 uM z-VAD-fmk (UV+z-VAD).
HEK293T cells, HeLa cells, and mouse embryonic fibroblasts (MEF) were cultured in DMEM supplemented with 10% fetal bovine serum (FBS).
In assay [2] the test system is Bax. Nature of the assay: Subcellular localization / mitochondrial translocation of Bax (fractionation, Western blot, confocal). In kind it is cell-based. Particulars: HeLa cells 200 nM STS; HEK293T cells UVC 200 J/m^2. Background: A western blot detects proteins with antibodies after separation by electrophoresis.
Method: FIG. 6A: Subcellular localization of Bax and Ku70. HeLa cells (10^7 cells) were transfected with 10 μg pCMV-2B (Control, STS,) or pCMV-2B-Ku70 (STS+Ku70). One day following transfection, except in the control group (Control), cells were treated by 200 nM STS (STS). One day after STS-treatment, cells were collected and subcellular fractionation was performed as described in Experimental Procedure. The levels of Ku70 (Ku70) and Bax (Bax) in each fraction were analyzed by Western blotting as described in Experimental Procedure. FoF1 ATP synthase subunit α (F1α) and PCNA (PCNA) were used as markers for mitochondrial and nuclear fractions, respectively. HM stands for “Heavy Membrane” fraction containing mitochondria. […] Cytosol fractions (20 μg protein) were separated by SDS-PAGE and analyzed by Western blotting for Ku70 (anti-Ku70 monoclonal antibody, BD-Pharmingen) and β-Tubulin (anti-β-Tubulin monoclonal antibody, BD-Pharmingen) levels. […] MEFs derived from wild-type (Ku70+/+) or Ku70-knockout mice (Ku70−/−) were analyzed as described in FIG. 6A. […] MEFs derived from wild-type (Ku70+/+) or Ku70-deficient (Ku70−/−) mice were treated with STS (200 nM) and cells were analyzed at indicated various periods after treatment as described in FIG. 6A. […]
Another assay concerns Du145 cells. Nature of the assay: Apoptosis in Bax-deficient Du145 cells. It is filed as cell-based, human. The settings on record: Du145, 200 J/m^2 UVC, 24 hours.
Assay [3] concerns the target T1, Bax (Homo sapiens, UniProt Q07812).
T1 construct: expressed in transfected cells; host or cells: HEK293T
Nature of the assay: Co-immunoprecipitation of Flag-tagged Ku70 constructs and Bax. In kind it is binding. The settings on record: HEK293T cells, Flag-tagged constructs, 50 uM z-VAD-fmk, Chaps-based buffer.
Method: Interaction of Ku70 and Bax. […] (FIG. 4D) Co-immunoprecipitation of Flag-tagged-Ku70 and endogenous Bax. HEK293T cells (10^6 cells) were co-transfected with 1.0 μg pcDNA3-Bax and 1.0 μg pCMV-2B-control vector (Flag-tagged firefly luciferase), pCMV-2B-Ku70 wt (Flag-Ku70 wt), pCMV-2B-Ku701-535 (Flag-Ku701-535), pCMV-2B-Ku70496-609 (Flag-Ku70496-609) or pCMV-2B-Ku70536-609 (Flag-Ku70536-609) in the presence of 50 μM z-VAD-fmk. Co-immunoprecipitation was performed as described in FIG. 4C, and Western blot of Bax was done with anti-human Bax polyclonal antibody.
Immunoprecipitation was performed as follows according to the previous methods (Hsu and Youle, 1998, Matsuyama, 1998a). After precleaning of 600 ul of the sample with 50 ul of Protein G-Sepharose at 4° C. for 1 hour, immunoprecipitations were performed by incubating 200 ul of lysates with 20 ul of Protein G-Sepharose preabsorbed with 2 ug of anti-Bax polyclonal antibody or 2 ug of anti-Ku70 monoclonal antibody at 4° C. for 2 hours. After extensive washing in the buffer, beads were boiled in 40 ul of Laemmli buffer and 20 ul of the eluted proteins were subjected to SDS-PAGE immunoblot analysis.

In assay [4] the test system is HEK293T cells. Description: Bax-induced apoptosis in HEK293T cells (pcDNA3-Bax transfection). It is filed as cell-based. Particulars: HEK293T cells co-transfected with pcDNA3-Bax and Ku70 construct, 24 hours.
Method: 10^6 cells were transfected with 1.0 μg of pcDNA3 (Control) or pcDNA3-Bax (Bax) together with 0.5, 1.0, or 2.0 μg of pCMV-2B-Ku70 wt (Ku70 wt) or pcDNA3-Myc-XIAP (XIAP). In “Bax+Vector” group, 1.0 μg pcDNA3-Bax and 2 ug of pCMV-2B were used, respectively (Control and Bax+Vector). All the cells were also co-transfected with 0.5 μg pEGFP for the marking of transfected cells. Apoptosis in the transfected cells was analyzed 24 hours following transfection with Hoechst dye staining of the nucleus as described in Experimental Procedure. […] 10^6 cells were transfected with 1.0 μg pcDNA3-Bax and 2.0 μg pCMV-2B (Bax+Vector), pCMV-2B-Ku70 wt (Bax+Ku70 wt), or pcDNA3-Myc-XIAP (Bax+XIAP). […] Apoptosis in the transfected cells was analyzed at 24 hours (Control) or the indicated time points following transfection. […] After 24 hours, apoptotic cells were counted as described in FIG. 1B. […] The number of apoptotic cells was determined as described in FIG. 1B. […] Apoptosis in the transfected cells was analyzed at the indicated periods following transfection as described in FIG. 1C.
HEK293T cells, HeLa cells, and mouse embryonic fibroblasts (MEF) were cultured in DMEM supplemented with 10% fetal bovine serum (FBS). […] Apoptosis in the transfected cells were analyzed as follows: Plasmid encoding EGFP (0.5 ug of pEGFP) was transfected to all the groups to mark the transfected cells. […]
For assay [5], the system named is Bax. Description: Mitochondrial translocation of Bax after TRAIL treatment in T98-G and Hep3B cells. In kind it is cell-based, human. The settings on record: T98G and Hep3B, 100 ng/ml TRAIL, 24 hours. Here is the method: FIG. 14. […] One day following the transfection, cells were treated by etoposide (20 uM). One day after the addition of etoposide into the culture, cells were collected and subcellular fractionation was performed as described in FIG. 9. […] Bax leveles in the samples of the fractions of the cytosol (“Cytosol”) and the heavy membrane (“HM”) were analyzed by Western blotting (middle and lower panels). […] All cells were also co-transfected with the plasmid encoding Green Fluorescent Protein (GFP) (pEGFP plasmid) for the detection of the transfected cells by GFP expression. One day following the transfection, etoposide (20 uM), cisplatin (20 uM), doxorubicin (1 uM), or TRAIL (100 ng/ml) was added to the culture, and cells were culture for 48 hours. The percentages of apoptotic cells were counted in GFP-expressing cells by staining the nucleus with Hochst-dye on day 1 and 2 of the culture. […] T98-G (glioma cell line) and Hep3B (hepatoma cell line) cells were cultured for 24 hours in the absence (“Control”) or the presence (“TRAIL”) of 100 ng/ml TRAIL. After the culture, cells were collected and subcellular fractionation was performed as described in FIG. 2. The samples of the cytosol fraction (20 ug protein) (“Cytosol”) and the equivalent proportion of heavy membrane fraction (“HM”) were subjected to Western analysis of Bax.

T1 sequence (Q07812 whole entry): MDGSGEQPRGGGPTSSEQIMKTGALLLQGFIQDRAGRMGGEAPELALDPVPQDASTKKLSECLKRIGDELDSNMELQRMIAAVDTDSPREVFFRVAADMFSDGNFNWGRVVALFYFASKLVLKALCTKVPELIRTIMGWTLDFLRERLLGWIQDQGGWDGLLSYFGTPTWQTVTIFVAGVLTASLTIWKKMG
Method for Du145 cells: Du145 cells (10^6 cells) were transfected with 0.5 μg PEGFP and 1.0 μg pCMV-2B (Vector), pcDNA3-Myc-XIAP (XIAP), pCMV-2B-Ku70 wt (Ku70 wt), or pCMV-2B-Ku70536-609 (Ku70536-609). One day following transfection, cells were exposed to 200 J/m^2 of UVC-irradiation. After 24 hours, apoptotic cells were counted as described in FIG. 1.
Apoptosis was induced by pcDNA3-human Bax (Bax-encoding plasmid)-transfection, Staurosporin (STS)-treatment, UVC-irradiation, anti-Fas-antibody-treatment (clone CH11), and human recombinant TRAIL-treatment (BD-Pharmingen). The amount of the plasmids, the concentration of STS, Fas-antibody, and TRAIL, and the energy of UVC-irradiation are as described in the figure legends. Apoptosis in the transfected cells were analyzed as follows: Plasmid encoding EGFP (0.5 ug of pEGFP) was transfected to all the groups to mark the transfected cells. One day following transfection of the plasmids listed in the figure legends or treatment of the cells with staurosporin (STS) or UVC-irradiation, cells were stained with Hoechst dye and cells with apoptotic nuclei were counted in GFP expressing cells under fluorescent microscope as previously reported (Wei, et al., 2001). Each point in the figures showing percentages of apoptosis represents the mean±SE of three experiments.
Method for Hela cells: Hela cells (10^6 cells) were transfected with 0.5 μg pEGFP and 1.0 μg pCMV-2B (Vector), pCMV-2B-Ku70 (Ku70 wt), pCMV-2B-Ku701-535 (Ku701-535), or pCMV-2B-Ku70536-609 (Ku70536-609). One day following transfection, cells were treated with 200 nM STS and the number of apoptotic cells was counted as described in FIG. 1 after 24 hours of STS treatment.
Hela cells (10^6 cells) were treated with 200 nM STS in the absence (STS) or presence of z-VAD-fmk (STS+z-VAD).

Consider `COC(=O)C[C@H](NC(=O)[C@H](C)NC(=O)[C@@H](NC(=O)OCc1ccccc1)C(C)C)C(=O)CF` [z-VAD-fmk, reference compound] (Cbz-Val-Ala-Asp(OMe)-CH2F), for which the “percentages of apoptotic cells” value is recorded as 11±3% in the assay with Hela cells (200 nM STS in presence of z-VAD-fmk) and 9±1% in the assay with HEK293T cells [1] (HEK293T cells, UVC 200 J/m^2 in presence of 50 uM z-VAD-fmk, one day, UV alone 42±5%).

Regarding `CN[C@@H]1C[C@H]2O[C@@](C)([C@@H]1OC)n1c3ccccc3c3c4c(c5c6ccccc6n2c5c31)C(=O)NC4` [STS, Staurosporine, reference compound], the “percentages of apoptotic cells” value in the assay with Hela cells (200 nM STS, control 3±1%) stood at 49±4%.

“Ku70536-609: Ku70 mutant expressing only the C-terminal 74 amino acids of Ku70”: the “effect on STS-induced apoptosis” value with Hela cells (200 nM STS) is given as “sufficient to block”. The “mitochondrial translocation of Bax induced by STS-treatment or UVC-irradiation” value in the assay with Bax [2] is reported as “inhibited Bax relocalization induced by UVC-irradiation”. In addition, the “effect on UVC-irradiation-induced cell death in Bax-deficient cells” value in the assay on Du145 cells is recorded as “did not rescue Bax-deficient cells from UVC-irradiation-induced cell death”. In addition, the “effect on UVC-irradiation-induced cell death” value with HEK293T cells [1] was “sufficient to block”. For the same molecule, in the assay with Bax [3], the “binding to Bax (co-immunoprecipitation)” value is on record as “bound to Bax”. Besides, the “effect on Bax-induced apoptosis” value with HEK293T cells [4] was “sufficient to block”.

Turning to “Ku70496-609: Ku70 mutant construct encoding amino acids 496-609 of Ku70, lacking Ku80-binding domain”, in the assay on Hela cells (200 nM STS), the “effect on STS-induced apoptosis” value was “retained the cytoprotective activities”. In addition, in the assay with HEK293T cells [1], the “effect on UVC-irradiation-induced cell death” value is listed as “retained the cytoprotective activities”. Besides, in the assay with Bax [3], the “binding to Bax (co-immunoprecipitation)” value is reported as “bound to Bax”. For the same molecule, the “effect on Bax-induced apoptosis” value in the assay with HEK293T cells [4] is “retained the cytoprotective activities”.

B1: TRAIL: cytokine, Tumor Necrosis Factor-Related Apoptosis-Inducing Ligand, human recombinant (protein, UniProt P50591 1-281, looked up)
Tumor necrosis factor ligand …: MAMMEVQGGPSLGQTCVLIVIFTVLLQSLCVAVTYVYFTNELKQMQDKYSKSGIACFLKEDDSYWDPNDEESMNSPCWQVKWQLRQLVRKMILRTSEETISTVQEKQQNISPLVRERGPQRVAAHITGTRGRSNTLSSPNSKNEKALGRKINSWESSRSGHSFLSNLHLRNGELVIHEKGFYYIYSQTYFRFQEEIKENTKNDKQMVQYIYKYTSYPDPILLMKSARNSCWSKDAEYGLYSIYQGGIFELKENDRIFVSVTNEHLIDMDHEASFFGAFLVG
Regarding B1, in the assay on Bax [5], the “mitochondrial translocation of Bax” value is reported as “did not induce the mitochondrial translocation of Bax”.
